Results published in patent US7772274B1, “Docetaxel formulations with lipoic acid” (Scidose, LLC, priority 2009, dated 2010).
Read-outs that look alike come from different tables or passages of the source.

Assay: Solubility of docetaxel in various solvents
Format: physicochemical
Conditions: for solubility: read-out: Solubility of Docetaxel, Concentration
Protocol: In consideration of the severe side effects associated with the use of polysorbates, such as TWEEN 80®, as solubilizers of docetaxel, solubility studies were conducted to determine non-toxic solvents that can effectively dissolve docetaxel.
Solubility of docetaxel was assessed using several different solvents that are well-tolerated in subjects, as well as polysorbates for comparison.

solubility (oil or lipid, solvent LABROFAC™ (Capric triglyceride PEG 4 ester Macrogol 200)): 35 mg/mL
solubility (oil or lipid, solvent MAISINE™ 35-1 (Glycerol mono linoleate)): 10 mg/mL
solubility (oil or lipid, solvent PECEOL® (Glycerol mono Oleate 40)): 7 mg/mL
solubility (organic solvent or mixture, solvent 1-lactic acid): 6 mg/mL
solubility (organic solvent or mixture, solvent 2% Lutrol in PEG 400): 15 mg/mL
solubility (organic solvent or mixture, solvent 50% PEG 400/50% PG): 15 mg/mL
solubility (organic solvent or mixture, solvent Acetic acid): 60 mg/mL
solubility (organic solvent or mixture, solvent Benzyl alcohol): 90 mg/mL
solubility (organic solvent or mixture, solvent Benzyl benzoate): 13 mg/mL
solubility (organic solvent or mixture, solvent Ethanol): 120 mg/mL
solubility (organic solvent or mixture, solvent Glycerol): 1.65 mg/mL
solubility (organic solvent or mixture, solvent Glycofurol): 200 mg/mL
solubility (organic solvent or mixture, solvent N-Methyl 2-Pyrrolidone): 17.6 mg/mL
solubility (organic solvent or mixture, solvent PEG 400): 10 mg/mL
solubility (organic solvent or mixture, solvent Propylene Glycol): 10 mg/mL
solubility (organic solvent or mixture, solvent Span 80): 3.5 mg/mL
solubility (organic solvent or mixture, solvent TPGS 1000): 50 mg/mL
solubility (organic solvent or mixture, solvent TWEEN 20®): 90 mg/mL
solubility (organic solvent or mixture, solvent TWEEN 80®): 60 mg/mL
Solubility of Docetaxel, Concentration (solvent Glycofurol): most soluble
Structure (SMILES): CC(=O)O[C@@]12CO[C@@H]1C[C@H](O)[C@@]1(C)C(=O)[C@H](O)C3=C(C)[C@@H](OC(=O)[C@H](O)[C@@H](NC(=O)OC(C)(C)C)c4ccccc4)C[C@@](O)([C@@H](OC(=O)c4ccccc4)[C@H]21)C3(C)C [Docetaxel, (2R,3S)—N-carboxy-3-phenylisoserine, N-tert-butyl ester, 13-ester with 5β-20-epoxy-1,2α,4,7β,10β,13α-hexahydroxytax-11-en-9-one 4-acetate 2-benzoate, trihydrate]
